Reference: PubChem BioAssay (NCI)
Where “and” joins values, the source holds several entries; their conditions need not be identical. Identical values can stand only once.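 Values below derive from 48-hour exposures of cells grown in 96-well plates, with endpoints linearly interpolated between the two concentrations bracketing the appropriate inhibition level. At the GI50, growth is halved. At the TGI there is no net growth.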

Tests used:
Test in all cases: NCI anticancer screen, dose series, 48 h
ACHN renal = test system: ACHN renal
HOP-92 NSCLC = test system: HOP-92 NSCLC
LOX IMVI melanoma = test system: LOX IMVI melanoma
NCI/ADR-RES ovarian = test system: NCI/ADR-RES ovarian
SW-620 colon = test system: SW-620 colon
HL-60(TB) leukemia = test system: HL-60(TB) leukemia
RPMI-8226 leukemia = test system: RPMI-8226 leukemia
MDA-N = test system: MDA-N
TK-10 renal = test system: TK-10 renal
BT-549 breast = test system: BT-549 breast

Cc1nn(C(=O)c2ccncc2)c2c1C(c1cccc([N+](=O)[O-])c1)SC(N)=N2 (stereo unspecified)
TGI (ACHN renal): > 10 µM
TGI (HOP-92 NSCLC): > 10 µM
TGI (LOX IMVI melanoma): > 10 µM
TGI (NCI/ADR-RES ovarian): > 10 µM
TGI (SW-620 colon): > 10 µM
TGI (HL-60(TB) leukemia): > 10 µM
TGI (RPMI-8226 leukemia): > 10 µM
TGI (MDA-N): > 10 µM
TGI (TK-10 renal): > 10 µM
TGI (BT-549 breast): > 10 µM

O=C(/C=C(\O)c1ccccc1)/C(=C/C(=O)c1ccccc1)NN=C(c1ccccc1)c1ccccc1
TGI (ACHN renal): > 100 µM
TGI (HOP-92 NSCLC): > 100 µM
TGI (LOX IMVI melanoma): > 100 µM
TGI (NCI/ADR-RES ovarian): 77.6 µM
TGI (SW-620 colon): > 100 µM
TGI (HL-60(TB) leukemia): 6.8 µM
TGI (RPMI-8226 leukemia): > 100 µM
TGI (MDA-N): > 100 µM
TGI (TK-10 renal): 97.6 µM
TGI (BT-549 breast): > 100 µM

COc1cc([C@H]2Oc3c(OC)cc(CCCO)cc3[C@@H]2CO)ccc1O
TGI (ACHN renal): > 100 µM
TGI (HOP-92 NSCLC): > 100 µM
TGI (LOX IMVI melanoma): > 100 µM
TGI (NCI/ADR-RES ovarian): > 100 µM
TGI (SW-620 colon): > 100 µM
TGI (HL-60(TB) leukemia): > 100 µM
TGI (RPMI-8226 leukemia): > 100 µM
TGI (MDA-N): > 100 µM
TGI (TK-10 renal): > 100 µM
TGI (BT-549 breast): > 100 µM

Oc1ccc(Cl)cc1C1=N/C(=N\C/N=C2\N=C(c3cc(Cl)ccc3O)CC(c3ccccc3)N2)NC(c2ccccc2)C1 (stereo unspecified)
TGI (ACHN renal): > 100 µM
TGI (HOP-92 NSCLC): > 100 µM
TGI (LOX IMVI melanoma): > 100 µM
TGI (NCI/ADR-RES ovarian): > 100 µM
TGI (SW-620 colon): > 100 µM
TGI (HL-60(TB) leukemia): > 100 µM
TGI (RPMI-8226 leukemia): > 100 µM
TGI (MDA-N): > 100 µM
TGI (TK-10 renal): > 100 µM
TGI (BT-549 breast): > 100 µM

Cc1ccc(OCC2OC(n3cnc4c(Cl)ncnc43)CC2Oc2ccc(C)cc2)cc1 (stereo unspecified)
GI50 (ACHN renal): 11.1 µM and 1.98 µM
TGI (ACHN renal): 24.9 µM and 3.73 µM
GI50 (HOP-92 NSCLC): 5.22 µM and 2.22 µM
TGI (HOP-92 NSCLC): 24.2 µM and 5.57 µM
GI50 (LOX IMVI melanoma): 2.41 µM and 15 µM
TGI (LOX IMVI melanoma): 10.8 µM and > 45.9 µM
TGI (NCI/ADR-RES ovarian): 36.5 µM and 40.8 µM
TGI (SW-620 colon): > 55.4 µM
GI50 (HL-60(TB) leukemia): 2.79 µM
TGI (HL-60(TB) leukemia): 7.17 µM
GI50 (RPMI-8226 leukemia): 3.03 µM
TGI (RPMI-8226 leukemia): > 25 µM and 22.5 µM
GI50 (MDA-N): 4.63 µM and 16.6 µM
TGI (MDA-N): 11.2 µM and 35.7 µM
TGI (TK-10 renal): > 100 µM
TGI (BT-549 breast): 40 µM and 49.9 µM

COP(=O)(OC)C(NC=O)P(=O)(OC)OC
TGI (ACHN renal): > 100 µM
TGI (HOP-92 NSCLC): > 100 µM
TGI (LOX IMVI melanoma): > 100 µM
TGI (NCI/ADR-RES ovarian): > 100 µM
TGI (SW-620 colon): > 100 µM
TGI (HL-60(TB) leukemia): > 100 µM
TGI (RPMI-8226 leukemia): > 100 µM
TGI (MDA-N): > 100 µM
TGI (TK-10 renal): > 100 µM
TGI (BT-549 breast): > 100 µM

O=C(N/N=C/c1ccc(Cl)cc1)c1cc(I)cc(I)c1O
TGI (ACHN renal): > 100 µM
TGI (HOP-92 NSCLC): > 100 µM
TGI (LOX IMVI melanoma): > 100 µM
TGI (NCI/ADR-RES ovarian): > 100 µM
TGI (SW-620 colon): > 100 µM
TGI (HL-60(TB) leukemia): > 100 µM
TGI (RPMI-8226 leukemia): > 100 µM
TGI (MDA-N): > 100 µM
TGI (TK-10 renal): > 100 µM
TGI (BT-549 breast): > 100 µM

CSc1nc(C#N)c(N)n1C
TGI (ACHN renal): > 100 µM
TGI (HOP-92 NSCLC): > 100 µM
TGI (LOX IMVI melanoma): > 100 µM
TGI (NCI/ADR-RES ovarian): > 100 µM
TGI (SW-620 colon): > 100 µM
TGI (HL-60(TB) leukemia): > 100 µM
TGI (RPMI-8226 leukemia): > 100 µM
TGI (MDA-N): > 100 µM
TGI (TK-10 renal): > 100 µM
TGI (BT-549 breast): > 100 µM

N=C(N)SCCCN
TGI (ACHN renal): 26.5 µM
TGI (HOP-92 NSCLC): > 40.6 µM
TGI (LOX IMVI melanoma): 13.6 µM
TGI (NCI/ADR-RES ovarian): > 62.1 µM
TGI (SW-620 colon): > 100 µM
TGI (HL-60(TB) leukemia): 7.75 µM
TGI (RPMI-8226 leukemia): > 68.9 µM
TGI (MDA-N): 26 µM
TGI (TK-10 renal): 20.7 µM
TGI (BT-549 breast): > 60.9 µM

CN(C)Cc1cc(C(=O)/C=C/c2cccc(Cl)c2)cc(CN(C)C)c1O
TGI (ACHN renal): 10.3 µM
TGI (HOP-92 NSCLC): 18.2 µM
TGI (LOX IMVI melanoma): 10.9 µM
TGI (NCI/ADR-RES ovarian): > 100 µM
TGI (SW-620 colon): 17.5 µM
TGI (HL-60(TB) leukemia): 4.58 µM
TGI (RPMI-8226 leukemia): 7.73 µM
TGI (MDA-N): 10.3 µM
TGI (TK-10 renal): 22 µM
TGI (BT-549 breast): 25.8 µM

O=c1[nH]c2cc3cccnc3c(Cl)c2nc1CBr
TGI (ACHN renal): 20.3 µM
TGI (HOP-92 NSCLC): 35.2 µM
TGI (LOX IMVI melanoma): 31.1 µM
TGI (NCI/ADR-RES ovarian): 53.3 µM
TGI (SW-620 colon): 32.5 µM
TGI (HL-60(TB) leukemia): 55.2 µM
TGI (RPMI-8226 leukemia): 26.3 µM
TGI (MDA-N): 34.9 µM
TGI (TK-10 renal): 61.8 µM
TGI (BT-549 breast): 89.8 µM

COc1ccc2c(c1OC)C(=O)O[C@@H]2[C@H]1c2cc3c(cc2CCN1C)OCO3
TGI (ACHN renal): > 100 µM
TGI (HOP-92 NSCLC): > 100 µM
TGI (LOX IMVI melanoma): > 100 µM
TGI (NCI/ADR-RES ovarian): > 100 µM
TGI (SW-620 colon): > 100 µM
TGI (HL-60(TB) leukemia): > 100 µM
TGI (RPMI-8226 leukemia): > 100 µM
TGI (MDA-N): > 100 µM
TGI (TK-10 renal): > 100 µM
TGI (BT-549 breast): > 100 µM

Oc1nc(N/N=C/c2ccccc2)[nH]c1/C=C1\C=Nc2ccccc21
TGI (ACHN renal): > 100 µM
TGI (HOP-92 NSCLC): > 100 µM
TGI (LOX IMVI melanoma): > 100 µM
TGI (NCI/ADR-RES ovarian): > 100 µM
TGI (SW-620 colon): > 100 µM
TGI (HL-60(TB) leukemia): > 100 µM
TGI (RPMI-8226 leukemia): > 100 µM
TGI (MDA-N): > 100 µM
TGI (TK-10 renal): > 100 µM
TGI (BT-549 breast): > 100 µM

Cc1cc(C)c2c(=N)c3ccccc3n(CCCCCCO)c2n1
TGI (ACHN renal): 6.81 µM
TGI (HOP-92 NSCLC): 16 µM
TGI (LOX IMVI melanoma): 5.17 µM
TGI (NCI/ADR-RES ovarian): 8.38 µM
TGI (SW-620 colon): > 36.1 µM
TGI (HL-60(TB) leukemia): 6.19 µM
TGI (RPMI-8226 leukemia): 4.29 µM
TGI (MDA-N): 7.42 µM
TGI (TK-10 renal): 17.9 µM
TGI (BT-549 breast): 23.7 µM
